Converted amounts (≈) assume the structure as drawn.
Assays:
S. suis 1054471 = assay: Resistance to antibiotics (MIC-based class); format: cell-based, Streptococcus suis; settings: strain 1054471; resistant if MIC ≥ 400 μg/ml
From the text: (§1) Table 1 Strains of S. suis used in this study, their characteristics and susceptibility to S. suis 65. | column: Resistance to antibiotics ^1 / Erythromycin; Resistance to antibiotics ^1 / Tetracycline

S. suis 1088563 = assay: Resistance to antibiotics (MIC-based class); format: cell-based, Streptococcus suis; settings: strain 1088563; resistant if MIC ≥ 400 μg/ml
From the text: as §1

S. suis 31533 = assay: Resistance to antibiotics (MIC-based class); format: cell-based, Streptococcus suis; settings: strain 31533; resistant if MIC ≥ 400 μg/ml
From the text: as §1

S. suis LPH4 = assay: Resistance to antibiotics (MIC-based class); format: cell-based, Streptococcus suis; settings: strain LPH4; resistant if MIC ≥ 400 μg/ml
From the text: as §1

S. suis MNCM01 = assay: Resistance to antibiotics (MIC-based class); format: cell-based, Streptococcus suis; settings: strain MNCM01; resistant if MIC ≥ 400 μg/ml
From the text: as §1

S. suis MNCM06 = assay: Resistance to antibiotics (MIC-based class); format: cell-based, Streptococcus suis; settings: strain MNCM06; resistant if MIC ≥ 400 μg/ml
From the text: as §1

S. suis P1/7 = assay: Resistance to antibiotics (MIC-based class); format: cell-based, Streptococcus suis; settings: strain P1/7; resistant if MIC ≥ 400 μg/ml
From the text: as §1

S. suis 65 = assay: Antibiotic susceptibility of S. suis 65 (broth microdilution MIC); format: cell-based; settings: Streptococcus suis; S. suis 65, THB, 96-well plates, 24 h at 37°C, growth recorded visually; three independent experiments
Procedure: The susceptibility of S. suis 65 to antibiotics (amoxicillin, ceftiofur, and penicillin G) was determined as follows. Briefly, a 24-h bacterial culture in THB was diluted in fresh broth medium to obtain an optical density at 660 nm (OD660) of 0.2. Equal volumes (100 μl) of bacteria and serial dilutions of antibiotics in THB were mixed in the wells of 96-well plates. Wells with no bacteria or no antibiotics were used as controls. Following a 24-h incubation at 37°C, bacterial growth was recorded visually. Minimal inhibitory concentration (MIC) values (μg/ml) were expressed as the lowest concentration at which no growth occurred. The MIC values were determined in three independent experiments.

SMILES | MIC (S. suis 65) [ng/mL] | Resistance to antibiotics (S. suis 1054471) | Resistance to antibiotics (S. suis 1088563) | Resistance to antibiotics (S. suis 31533) | Resistance to antibiotics (S. suis LPH4) | Resistance to antibiotics (S. suis MNCM01) | Resistance to antibiotics (S. suis MNCM06) | Resistance to antibiotics (S. suis P1/7)
CC[C@H]1OC(=O)[C@H](C)[C@@H](O[C@H]2C[C@@](C)(OC)[C@@H](O)[C@H](C)O2)[C@H](C)[C@@H](O[C@@H]2O[C@H](C)C[C@H](N(C)C)[C@H]2O)[C@](C)(O)C[C@@H](C)C(=O)[C@H](C)[C@@H](O)[C@]1(C)O [Erythromycin] |  | Sensitive (A strain was considered resistant if the MIC was ≥ 400 μg/ml) | Resistant (A strain was considered resistant if the MIC was ≥ 400 μg/ml) | Sensitive (A strain was considered resistant if the MIC was ≥ 400 μg/ml) | Resistant (A strain was considered resistant if the MIC was ≥ 400 μg/ml) | Resistant (A strain was considered resistant if the MIC was ≥ 400 μg/ml) | Resistant (A strain was considered resistant if the MIC was ≥ 400 μg/ml) | Sensitive (A strain was considered resistant if the MIC was ≥ 400 μg/ml)
CN(C)[C@@H]1C(O)=C(C(N)=O)C(=O)[C@@]2(O)C(O)=C3C(=O)c4c(O)cccc4[C@@](C)(O)[C@H]3C[C@@H]12 [Tetracycline] |  | Resistant (A strain was considered resistant if the MIC was ≥ 400 μg/ml) | Resistant (A strain was considered resistant if the MIC was ≥ 400 μg/ml) | Sensitive (A strain was considered resistant if the MIC was ≥ 400 μg/ml) | Resistant (A strain was considered resistant if the MIC was ≥ 400 μg/ml) | Resistant (A strain was considered resistant if the MIC was ≥ 400 μg/ml) | Resistant (A strain was considered resistant if the MIC was ≥ 400 μg/ml) | Sensitive (A strain was considered resistant if the MIC was ≥ 400 μg/ml)

The next lines start with results.

MIC (S. suis 65) [ng/mL] | SMILES | Resistance to antibiotics (S. suis 1054471) | Resistance to antibiotics (S. suis 1088563) | Resistance to antibiotics (S. suis 31533) | Resistance to antibiotics (S. suis LPH4) | Resistance to antibiotics (S. suis MNCM01) | Resistance to antibiotics (S. suis MNCM06) | Resistance to antibiotics (S. suis P1/7)
4.9 (≈ 0.0134 µM) | CC1(C)S[C@@H]2[C@H](NC(=O)[C@H](N)c3ccc(O)cc3)C(=O)N2[C@H]1C(=O)O [amoxicillin] |  |  |  |  |  |  | 
9.8 (≈ 0.0187 µM) | CO/N=C(\C(=O)N[C@@H]1C(=O)N2C(C(=O)O)=C(CSC(=O)c3ccco3)CS[C@H]12)c1csc(N)n1 [ceftiofur] |  |  |  |  |  |  | 
9.8 (≈ 0.0293 µM) | CC1(C)S[C@@H]2[C@H](NC(=O)Cc3ccccc3)C(=O)N2[C@H]1C(=O)O [penicillin G] |  |  |  |  |  |  | 

From article PMC4692507, “Purification and Characterization of Suicin 65, a Novel Class I Type B Lantibiotic Produced by Streptococcus suis” (PLoS ONE, 2015)
